Reference: patent publication US8642630B2, “Endogeneous repair factor production accelerators” (Ono Pharmaceutical Co., Ltd., priority 2002, dated 2014)

Legend:
VEGF = assay: Endogenous repair factor protein producing action (in vitro), VEGF by ELISA, Example 2; type: cell-based, human; details: 10^-7 mol/l
Method: (§1) An angiogenesis kit (manufactured by Kurabo; constituted from normal human umbilical cord vein vascular endothelial cells and normal human skin fibroblasts) was cultured for 3 hours, and then the culture medium (the medium for angiogenesis use attached to the angiogenesis kit was used as the culture medium and cultured at 37° C. under a moist environment of 5% carbon dioxide-95% air, and a carbon dioxide incubator BNA-121D was used as the incubator) was changed and an agent to be tested was added to each well (0.5 ml/well). The agent to be tested were solvent (DMSO) 0.1% and Compound 1 10^−7 mol/l, and the culturing was carried out by using 3 wells for each. Culture supernatants were collected before commencement of the culturing and 1, 2, 6, 24, 48 and 72 hours after the commencement. HGF and VEGF protein concentrations in the culture supernatants were measured by using an ELISA kit (R % D system-Funakoshi).
(§2) As the agent to be tested, Compound 1 ((E)-[5-[2-[1-phenyl-1-(3-pyridyl)methylideneaminoxy]ethyl]-7,8-dihydronaphthalen-1-yloxy]acetic acid) was dissolved in dimethyl sulfoxide (DMSO) to prepare 10^−4 mol/l solution which was then used by diluting 1/1000 time with the culture medium.
(§3) Results of the solvent control wells were compared with those of the wells treated with the agent to be tested by Dunnett's test (two-sided test). The significance level was set to 5%. […]

[1] = tested on: normal human umbilical cord vein vascular endothelial cells and normal human skin fibroblasts; assay: Measurement of angiogenesis acceleration action (in vitro), hollow organ formation, Example 1; type: cell-based
Method: An angiogenesis kit (manufactured by Kurabo; constituted from normal human umbilical cord vein vascular endothelial cells and normal human skin fibroblasts) was cultured for 3 hours, and then the culture medium (the medium for angiogenesis use attached to the angiogenesis kit was used as the culture medium and cultured at 37° C. under a moist environment of 5% carbon dioxide-95% air, and a carbon dioxide incubator BNA-121D was used as the incubator) was changed and an agent to be tested was added to each well (0.5 ml/well). The medium exchange was carried out also on the 3rd, 6th and 8th days after commencement of the culturing and the fresh agent to be tested was added. The kind and concentration of the agent to be tested were untreated, solvent (DMSO) 0.1%, Compound 1 10^−9, 10^−8 and 10^−7 mol/l, VEGF-A 0.1, 1 and 10 ng/ml and HGF 0.1, 1 and 10 ng/ml, and the culturing was carried out by using 3 wells for each concentration. Fixation was carried out 10 days after the commencement of culturing, and staining of hollow organ with anti-CD31 antibody was carried out by using a hollow organ staining kit (manufactured by Kurabo). As the evaluation, Chalkley Grid (a grid lens, manufactured by Kurabo) was mounted on the eyepiece of a microscope, and the hollow organ formation was evaluated by counting intersections of the randomly arrange points of Chalkley Grid with the formed hollow organ (by referring to the evaluation method of J. Pathol., 177, 275-283 (1995)). The counting was carried out at 12 positions per well, and the total was calculated.
As the agent to be tested, Compound 1 ((E)-[5-[2-[1-phenyl-1-(3-pyridyl)methylideneaminoxy]ethyl]-7,8-dihydronaphthalen-1-yloxy]acetic acid) was dissolved in dimethyl sulfoxide (DMSO) to prepare 10^−4, 10^−5 and 10^−6 mol/l solutions which were then used by diluting 1/1000 time with the culture medium.
As the VEGF-A (vascular endothelial growth factor-A), the 2 μg/ml solution of VEGF contained in the angiogenesis control reagent kit of Kurabo was diluted with the culture medium and used. […]

HGF = assay: Endogenous repair factor protein producing action (in vitro), HGF by ELISA, Example 2; type: cell-based, human; details: 10^-7 mol/l
Method: as §1, §2, §3

[2] = tested on: rat leg ischemia (arteriosclerosis obliterans (ASO)) model; assay: Rat leg ischemia (ASO) model; usefulness of topical administration, Example 6; type: in vivo; details: 0.1 mg, intramuscular administration into the ischemic left femoral part
Method: Leg ischemia model was prepared by ligating rat left femoral artery. Blood flow in hind legs was measured by using Laser Doppler Imager (Moor Instruments) 1 week after the preparation, and the animals were divided into 4 groups (n=5) in such a manner that the average value of blood flow became almost uniform.
Starting on the next day of the grouping, 0.1 ml/site, 2 sites, of the agent to be tested was administered by intramuscular injection into ischemic regions of the left femoral adductor (polymer group, Compound 1 group, Compound 1 MS group) and normal region of the right shoulder upper arm (Compound 1 MS group), for once a week, 4 times in total as a solution to be tested. One week after completion of the final administration, blood flows of hind legs were measured by using Laser Doppler Imager (Moor Instruments), and blood flows of the treated leg (left leg) and untreated leg (right leg) were compared and examined.
• The polylactic acid-glycolic acid copolymer used in Preparation Example 2 was suspended in 0.2 w/v % Tween 80 solution (0.2 ml). In this connection, amount of the polylactic acid-glycolic acid copolymer is identical to the amount contained in Compound 1 MS (1 mg). Compound 1 (0.1 mg) Group: • Compound 1 (0.1 mg) was suspended in 0.2 w/v % Tween 80 solution (0.2 ml). […]

[3] = 72 hours of culturing, vs solvent control
[4] = after 72 hours of culturing, average of 3 wells ± SD

## O=C(O)COc1cccc2c1CCC=C2CCO/N=C(\c1ccccc1)c1cccnc1 [Compound 1, (E)-[5-[2-[1-phenyl-1-(3-pyridyl)methylideneaminoxy]ethyl]-7,8-dihydronaphthalen-1-yloxy]acetic acid]
VEGF; [3]
  production of VEGF protein, in words: accelerated production of HGF protein and VEGF protein statistically significantly
VEGF; [4]
  VEGF protein concentration in culture supernatant: 3034 ± 30 pg/mL
[1]; 10^-8 and 10^-7 mol/l, 10 days of culturing, vs untreated wells, Dunnett's test, FIG. 1
  hollow organ formation (Chalkley Grid count), in words: accelerated hollow organ formation statistically significantly
[1]; co-culture system of human vascular endothelial cells and human fibroblasts
  angiogenesis accelerating effect, strength compared with positive control agents: strength equivalent to the positive control agents VEGF-A and HGF
HGF; [3]
  production of HGF protein, in words: accelerated production of HGF protein and VEGF protein statistically significantly
HGF; [4]
  HGF protein concentration in culture supernatant: 518 ± 15 pg/mL
[2]
  increase in the blood flow, in words: significant blood flow increasing action was not observed
[2]; once a week x4, 1 week after final administration
  Treated leg/untreated leg blood flow ratio: 60.5 ± 3.1%
